The structures appear in SMILES notation.

One test deals with Rattus norvegicus. Put plainly: Antidiabetic activity against STZ-induced diabetic Sprague-Dawley rat assessed as reduction in fasting blood glucose level at 0.1 mg/kg,po for 2 months. It is filed as functional. On the set-up: scale not given: the % may be the effect or the level left. As to conditions: 1460 h.
A further test relates to Mus musculus. Put plainly: Antidiabetic activity against diabetic KKAy mouse model assessed as decrease in plasma glucose level at 50 mg/kg,po by glucose analyzer. The test is classed as functional. On the set-up: scale not given: the % may be the effect or the level left.

With `Cc1oc(-c2ccccc2)nc1CCC(=O)c1ccc(CC2SC(=O)NC2=O)cc1` (configuration not stated) [DARGLITAZONE], in the test on Rattus norvegicus, the Activity stood at 80%.

Regarding `Cc1c(C)c2c(c(C)c1O)CCC(C)(COc1ccc(CC3SC(=O)NC3=O)cc1)O2` (configuration not stated) [TROGLITAZONE], the Activity with Mus musculus is recorded as 38.5%.

For the origin of these results see ChEMBL document CHEMBL5260796, “Thiazolidinediones and PPAR orchestra as antidiabetic agents: From past to present” (Eur J Med Chem, 2017).
